Measurements from PubChem BioAssay AID1963829 (Molecular Pharmacology Branch, DTP, NCI, 2024).
Several values for one entry are separate records, joined by “and”; a condition that tells them apart may be missing. Equal entries are not always repeated.

Tested on: 935938-334-R-J1-PDC complex spheroid viability
Assay: Anticancer human tumor 935938-334-R-J1-PDC patient-derived small intestine adenocarcinoma cell line growth inhibition [POLQ]
Details: for viability, T/C: stronger effect = lower value
Protocol: Multicellular complex tumor spheroid response to Polymerase (POL) inhibitors (novobiocin, ART-558, RP6685) in combination with a variety of drugs and investigational agents in selected tumor cell lines
The POL inhibitors (novobiocin, ART-558, and RP6685) were evaluated both individually and in combination with standard of care and investigational anticancer small molecules within a complex spheroid model of solid tumors. . Complex spheroids include a stromal component modeled by human endothelial cells (HUVEC) and fibroblasts modeled by human mesenchymal stem cells (MSCs). The concentration ranges selected for each drug and investigational agent were based upon clinically achievable concentrations if the clinical Cmax of the agent was known.
Compounds. The drugs and investigational agents: novobiocin (NSC847541), ART-558 (NSC835418), RP-6685 (NSC848927), peposertib (NSC802822), ceralasertib (NSC780249), elimusertib (NSC800525), camonsertib (NSC841442), AZD-1390 (NSC803789), olaparib (NSC753686), talazoparib (NSC767125), rucaparib (NSC756644), sotorasib (NSC818433), MRTX-1133 (NSC836407), SN-38 (NSC673596), topotecan (NSC609699), epotoside (NSC141540), doxorubicin (NSC123127), gemcitabine (NSC613327), 5-fluorouracil (NSC19893), paclitaxel (NSC125973), vemurafenib (NSC761431), MSA-2 (NSC828583), SN-011 (NSC837082), adavosertib (NSC754352), prexasertib (NSC758257), carboplatin (NSC241240) and oxaliplatin (NSC266046), were obtained from the National Cancer Institute (NCI) Developmental Therapeutics Program Chemical Repository (21). The FDA-approved anticancer drug set is available from the Developmental Therapeutics Program at https://dtp.cancer.gov/organization/dscb/obtaining/. […] The stock solutions were prepared in dimethyl sulfoxide (DMSO, Sigma-Aldrich, St. Louis, MO, cat. D2650), except for the platinum compounds which were prepared in saline (Quality Biological, Gaithersburg, MD, cat. 114-055-101), at 800-fold the tested concentration and stored at -70 degrees C prior to their use. All drugs and investigational agents were tested over a range starting from a high concentration at or near the clinical Cmax and decreasing in half-log increments. If the clinical Cmax for an agent had not been determined, the highest concentration tested was 10 microM, except for SN-38, which was tested at a high concentration of 1 microM.
Cell Culture. All cells were maintained in an incubator at 37 degrees C and 5% CO2 with 95% humidity. The PDC lines were cultured according to standard operating procedures established by the NCI PDMR (https://pdmr.cancer.gov). Table 3 of the manuscript, lists the cell lines along with the number of the three cell types plated to form the mct-spheroids and media for tumor cell growth. After thawing, all PDC lines, except 997537-175-T-J1-PDC and 415267-285-R-J2-PDC, were cultured in Matrigel-coated flasks prepared with a working solution of 1X Ham's F-12 nutrient mix, without supplementation (Thermo Fisher Scientific, cat. 11765054), 100 U/mL penicillin-streptomycin (Thermo Fisher Scientific, cat. 15140122), and 2.5% Matrigel (Corning Inc., Corning, NY, cat. 354248) for the first three passages. The two PDC lines 997537-175-T-J1-PDC and 415267-285-R-J2-PDC were cultured on uncoated flasks. The 857933-349-R-J2-PDC line was cultured in 6C/Colon 1B media containing advanced DMEM/F-12 (Thermo Fisher Scientific, cat. 12634028), 10 mM HEPES (Thermo Fisher Scientific, cat. 15630080), 1X GlutaMAX supplement (Thermo Fisher Scientific, cat. 35050061), 0.1 mg/mL primocin (InvivoGen, San Diego, CA, cat. ant-pm-2), 10% defined fetal bovine serum, heat inactivated (HyClone Laboratories Inc., Logan, UT, cat. SH30070.03HI), 50% L-WRN conditioned media (ATCC, cat. CRL-3276), 1.25 mM N-Acetyl-L-cysteine (Sigma-Aldrich, cat. A9165), 10 mM nicotinamide (Sigma-Aldrich, cat. N0636), 1X B-27 supplement (Thermo Fisher Scientific, cat. 17504044), 1X N-2 supplement (Thermo Fisher Scientific, cat. […]
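Note: spheroids exposed to drugs for seven days before viability read.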
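Throughout, for viability, T/C: 100% = DMSO vehicle control wells.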

Work on `CC[C@@]1(O)C(=O)OCc2c1cc1n(c2=O)Cc2cc3c(CN(C)C)c(O)ccc3nc2-1` + Nc1ccc(C#CCN(C(=O)Cc2ncc(C(F)(F)F)cc2C(F)(F)F)c2ccc(F)cc2)nn1 yielded an IC50 (curve of first compound, second compound 0.0316 µM) of over 0.1 µM, an IC50 (curve of first compound, second compound 0.1 µM) of over 0.1 µM and an IC50 (curve of first compound, second compound 0.316 µM) of over 0.1 µM. It also gave an IC50 (curve of first compound, second compound 1 µM) of over 0.1 µM, an IC50 (curve of first compound, second compound 3.16 µM) of over 0.1 µM and an IC50 (curve of first compound, second compound 10 µM) of over 0.1 µM. The viability, T/C (second compound 0.0316 µM, first compound 0.000316 µM) was 73.9%, the viability, T/C (second compound 0.0316 µM, first compound 0.001 µM) was 96.8% and the viability, T/C (second compound 0.0316 µM, first compound 0.00316 µM) was 97.6%. For the same compound, the viability, T/C (second compound 0.0316 µM, first compound 0.01 µM) was 91.9%, the viability, T/C (second compound 0.0316 µM, first compound 0.0316 µM) was 84.3% and the viability, T/C (second compound 0.0316 µM, first compound 0.1 µM) was 60.2%. For the same compound, the viability, T/C (second compound 0.1 µM, first compound 0.000316 µM) was 98.6%, the viability, T/C (second compound 0.1 µM, first compound 0.001 µM) was 101% and the viability, T/C (second compound 0.1 µM, first compound 0.00316 µM) was 113%. The viability, T/C (second compound 0.1 µM, first compound 0.01 µM) was 98.1%, the viability, T/C (second compound 0.1 µM, first compound 0.0316 µM) was 96.7% and the viability, T/C (second compound 0.1 µM, first compound 0.1 µM) was 63%. For the same compound, the viability, T/C (second compound 0.316 µM, first compound 0.000316 µM) was 129%, the viability, T/C (second compound 0.316 µM, first compound 0.001 µM) was 130% and the viability, T/C (second compound 0.316 µM, first compound 0.00316 µM) was 99.2%. It also gave a viability, T/C (second compound 0.316 µM, first compound 0.01 µM) of 82.6%, a viability, T/C (second compound 0.316 µM, first compound 0.0316 µM) of 87.4% and a viability, T/C (second compound 0.316 µM, first compound 0.1 µM) of 57%. It also gave a viability, T/C (second compound 1 µM, first compound 0.000316 µM) of 132%, a viability, T/C (second compound 1 µM, first compound 0.001 µM) of 117% and a viability, T/C (second compound 1 µM, first compound 0.00316 µM) of 77.8%. It also gave a viability, T/C (second compound 1 µM, first compound 0.01 µM) of 105%, a viability, T/C (second compound 1 µM, first compound 0.0316 µM) of 86.7% and a viability, T/C (second compound 1 µM, first compound 0.1 µM) of 48%. The viability, T/C (second compound 3.16 µM, first compound 0.000316 µM) was 110%, the viability, T/C (second compound 3.16 µM, first compound 0.001 µM) was 110% and the viability, T/C (second compound 3.16 µM, first compound 0.00316 µM) was 96.9%. The viability, T/C (second compound 3.16 µM, first compound 0.01 µM) was 116%, the viability, T/C (second compound 3.16 µM, first compound 0.0316 µM) was 84% and the viability, T/C (second compound 3.16 µM, first compound 0.1 µM) was 65.1%. For the same compound, the viability, T/C (second compound 10 µM, first compound 0.000316 µM) was 163%, the viability, T/C (second compound 10 µM, first compound 0.001 µM) was 117% and the viability, T/C (second compound 10 µM, first compound 0.00316 µM) was 111%. For the same compound, the viability, T/C (second compound 10 µM, first compound 0.01 µM) was 72.7%, the viability, T/C (second compound 10 µM, first compound 0.0316 µM) was 103% and the viability, T/C (second compound 10 µM, first compound 0.1 µM) was 48.6%.

For `CCc1cc2c(N3CCc4c(cc(Cn5ccnc5)cc4-c4cn(C)nc4C(F)(F)F)C3=O)ccnc2c(OC)n1`, the viability, T/C (compound 0.0316 µM) was 78.9% and 69.7% and 64.6%, the viability, T/C (compound 0.1 µM) was 56.2% and 71.7% and 57.9% and the viability, T/C (compound 0.316 µM) was 70.9% and 68.9% and 69.7%. The viability, T/C (compound 1 µM) was 61.2% and 62% and 60.9%, the viability, T/C (compound 3.16 µM) was 64.3% and 76.9% and 69.6% and the viability, T/C (compound 10 µM) was 57.7% and 50.2% and 58.4%. It also gave an IC50 (curve of compound) of over 10 µM.

With `CNCc1ccc(-c2[nH]c3cc(F)cc4c3c2CCNC4=O)cc1` the viability, T/C (compound 0.0316 µM) was 114% and 107% and 98.2%, the viability, T/C (compound 0.1 µM) was 119% and 78.9% and 107% and the viability, T/C (compound 0.316 µM) was 92.8% and 87.7% and 94.1%. The viability, T/C (compound 1 µM) was 88% and 96% and 108%, the viability, T/C (compound 3.16 µM) was 94% and 139% and 114% and the viability, T/C (compound 10 µM) was 109% and 116% and 90.9%. The IC50 (curve of compound) was over 10 µM.

In the case of `CC1COCCN1c1cc(-c2ccnn2C)c2ccnc(-c3ccn[nH]3)c2n1` (stereo not given), the viability, T/C (compound 0.0316 µM) is reported as 82.6% and 80.7% and 109%, the viability, T/C (compound 0.1 µM) is reported as 48.1% and 37.2% and 43.2% and the viability, T/C (compound 0.316 µM) is reported as 23.7% and 26.6% and 25.3%. The viability, T/C (compound 1 µM) was 19.7% and 18.6% and 15.1%, the viability, T/C (compound 3.16 µM) was 17.2% and 15.3% and 17.5% and the viability, T/C (compound 10 µM) was 19.2% and 18.9% and 18.3%. For the same compound, the IC50 (curve of compound) was 0.0939 µM and 0.0731 µM and 0.0896 µM.

With `O=C(c1cc(Cc2n[nH]c(=O)c3ccccc23)ccc1F)N1CCN(C(=O)C2CC2)CC1` the viability, T/C (compound 0.0316 µM) was 88.4% and 80.5% and 75%, the viability, T/C (compound 0.1 µM) was 103% and 70.2% and 77.2% and the viability, T/C (compound 0.316 µM) was 100% and 67.5% and 112%. The viability, T/C (compound 1 µM) was 94.9% and 67.4% and 68.7%, the viability, T/C (compound 3.16 µM) was 72% and 64.6% and 73.7% and the viability, T/C (compound 10 µM) was 54.9% and 55.4% and 55.1%. The IC50 (curve of compound) was over 10 µM.
